Data reported in patent US20140072624A1, “UNIT DOSE FORM FOR ORAL ADMINISTRATION” (THRESHOLD PHARMACEUTICALS, INC., priority 2011, published 2014).
Where two headings read alike, the source gives them in different places.

What was measured:
[1] = Single dose pharmacokinetics of TH-302 after a 30-min intravenous infusion in rats; format: in vivo; settings: for Vd: read-out: Vss
[2] = Pharmacokinetics of TH-302 in rats after a single IV dose; format: in vivo, Sprague-Dawley rats; settings: rat; for Tmax: Sprague-Dawley, plasma
[3] = Pharmacokinetics of TH-302 in rats after a single oral (PO) dose; format: in vivo, Sprague-Dawley rats
Experimental: TH-302 (1-methyl-2-nitro-1H-imidazole-5-yl) N,N′-bis(2-bromoethyl) diamidophosphate, m.w.=449) that was about 96% pure based on high performance liquid chromatography (HPLC) analysis, was used. Male Sprague-Dawley rats (n=3 per time point) were administered a single oral dose of 100 mg/kg TH-302 (see, Table 1 and FIG. 1).

[4] = Sprague-Dawley, rat, plasma, female rats, 50 mg/kg, 30-min IV infusion
[5] = Sprague-Dawley, rat, plasma, female rats, 100 mg/kg, 30-min IV infusion
[6] = Sprague-Dawley, rat, plasma, male rats, 50 mg/kg, 30-min IV infusion
[7] = Sprague-Dawley, rat, plasma, male rats, 100 mg/kg, 30-min IV infusion
[8] = Sprague-Dawley, rat, plasma, male rats, 200 mg/kg, 30-min IV infusion
[9] = male rats, 100 mg/kg, 30-min IV infusion
[10] = rat, plasma, female rats, 200 mg/kg, 30-min IV infusion
[11] = male Sprague-Dawley rats, single oral dose 100 mg/kg in normal saline
[12] = rat, PO, 100 mg/kg, composite data, n = 3 per time point

**Q.** Which results are given for `Cn1c(COP(=O)(NCCBr)NCCBr)cnc1[N+](=O)[O-]` [TH-302]?
**A.** Cmax [1, 4]: 14100 ng/mL; Tmax [1, 4]: 31 min; clearance [1, 4]: 115 mL/min/kg; Vd [1, 4]: 2.81 L/kg; Cmax [1, 5]: 30000 ng/mL; Tmax [1, 5]: 30 min; clearance [1, 5]: 103 mL/min/kg; Vd [1, 5]: 2.59 L/kg; Vd ([1]; Sprague-Dawley, rat, plasma, female rats, 200 mg/kg, 30-min IV infusion): 2.35 L/kg; Cmax [1, 6]: 15600 ng/mL; Tmax [1, 6]: 31 min; clearance [1, 6]: 104 mL/min/kg; Vd [1, 6]: 2.57 L/kg; Tmax [1, 7]: 33 min; clearance [1, 7]: 98.3 mL/min/kg; Cmax ([1]; Sprague-Dawley, rat, plasma, male rats, 100 mg/kg, 30-min IV infusion (end of infusion)): 30900 ng/mL; Vd [1, 7]: 2.59 L/kg; Cmax [1, 8]: 62500 ng/mL; Tmax [1, 8]: 33 min; clearance [1, 8]: 89.7 mL/min/kg; Vd [1, 8]: 2.51 L/kg; AUC ([1]; female, Sprague-Dawley, rat, plasma, iv, 50 mg/kg, female rats, 50 mg/kg, 30-min IV infusion, read-out: AUC): 7330 ng·h/mL; half-life ([1]; female, Sprague-Dawley, rat, plasma, iv, 50 mg/kg, female rats, 50 mg/kg, 30-min IV infusion, read-out: Half-Life (converted)): 19.1 min; AUC ([1]; female, Sprague-Dawley, rat, plasma, iv, 100 mg/kg, female rats, 100 mg/kg, 30-min IV infusion, read-out: AUC): 16100 ng·h/mL; half-life ([1]; female, Sprague-Dawley, rat, plasma, iv, 100 mg/kg, female rats, 100 mg/kg, 30-min IV infusion, read-out: Half-Life (converted)): 17.2 min; AUC ([1]; female, rat, plasma, iv, 200 mg/kg, female rats, 200 mg/kg, 30-min IV infusion, read-out: AUC): 40600 ng·h/mL; half-life ([1]; female, rat, plasma, iv, 200 mg/kg, female rats, 200 mg/kg, 30-min IV infusion, read-out: Half-Life (converted)): 23.4 min; AUC [1, 9]: 17000 ng·h/mL; half-life [1, 9]: 16.1 min; AUC ([1]; male, Sprague-Dawley, rat, plasma, iv, 50 mg/kg, male rats, 50 mg/kg, 30-min IV infusion, read-out: AUC): 7940 ng·h/mL; half-life ([1]; male, Sprague-Dawley, rat, plasma, iv, 50 mg/kg, male rats, 50 mg/kg, 30-min IV infusion, read-out: Half-Life (converted)): 20 min; AUC ([1]; male, Sprague-Dawley, rat, plasma, iv, 100 mg/kg, male rats, 100 mg/kg, 30-min IV infusion, read-out: AUC): 17100 ng·h/mL; half-life ([1]; male, Sprague-Dawley, rat, plasma, iv, 100 mg/kg, male rats, 100 mg/kg, 30-min IV infusion, read-out: Half-Life (converted)): 16.2 min; AUC ([1]; male, Sprague-Dawley, rat, plasma, iv, 200 mg/kg, male rats, 200 mg/kg, 30-min IV infusion, read-out: AUC): 37600 ng·h/mL; half-life ([1]; male, Sprague-Dawley, rat, plasma, iv, 200 mg/kg, male rats, 200 mg/kg, 30-min IV infusion, read-out: Half-Life (converted)): 19.4 min; Cmax [1, 10]: 71100 ng/mL; Tmax [1, 10]: 41 min; clearance [1, 10]: 80.7 mL/min/kg; Tmax ([2]; 1 mg/kg, n = 3, mean ± S.D.): 1.98 min; Tmax ([2]; 5 mg/kg, n = 2, mean ± S.D.): 1.98 min; Tmax ([2]; 20 mg/kg, n = 3, mean ± S.D.): 1.98 min; Tmax ([2]; 50 mg/kg, n = 3, mean ± S.D.): 1.98 min; AUC (total area under the concentration-time curve from zero to infinity) ([2]; 1 mg/kg, n = 3, mean ± S.D.): 0.221 ± 0.054 μg-; Cmax ([2]; 1 mg/kg, n = 3, mean ± S.D.): 0.802 ± 0.165 μg/m; AUC (total area under the concentration-time curve from zero to infinity) ([2]; 5 mg/kg, n = 2): 0.826 μg-; Cmax ([2]; 5 mg/kg, n = 2): 3.82 μg/m; AUC (total area under the concentration-time curve from zero to infinity) ([2]; 20 mg/kg, n = 3, mean ± S.D.): 3.30 ± 0.36 μg-; Cmax ([2]; 20 mg/kg, n = 3, mean ± S.D.): 13.5 ± 1.52 μg/m; AUC (total area under the concentration-time curve from zero to infinity) ([2]; 50 mg/kg, n = 3, mean ± S.D.): 8.47 ± 0.02 μg-; Cl ([2]; 50 mg/kg, n = 3, mean ± S.D.): 98.5 ± 4.17 mL/min/kg; Cmax ([2]; 50 mg/kg, n = 3, mean ± S.D.): 35.5 ± 3.01 μg/m; Vss ([2]; 50 mg/kg, n = 3, mean ± S.D.): 1.67 ± 0.04 L/kg; time of mean peak plasma concentration (first sampled time point) ([3]; male Sprague-Dawley rats, single oral dose 100 mg/kg): 15 min; mean peak plasma concentration [3, 11]: 15.8 µg/mL; time of mean peak plasma concentration (first sampling time point) [3, 11]: 0.25 h; oral absorption (in words) ([3]; male Sprague-Dawley rats, single oral dose 100 mg/kg, 100 mg/kg): rapidly and well absorbed; t1/2 ([3]; male rat, PO, 100 mg/kg, composite data, n = 3 per time point): 96 min; Tmax ([3]; male, Sprague-Dawley, plasma, rat, PO, 100 mg/kg, composite data, n = 3 per time point): 15 min; bioavailability ([3]; male, Sprague-Dawley, rat, plasma, oral, 100 mg/kg, male rat, PO, 100 mg/kg vs 100 mg/kg 30 minute IV infusion, read-out: Oral F (absolute oral bioavailability)): 77.3%; AUC (total area under the concentration-time curve from zero to infinity) [3, 12]: 13.1 μg-; Cmax [3, 12]: 15.8 μg/m; AUC ([3]; rat, plasma, male Sprague-Dawley rats, single oral dose 100 mg/kg, read-out: mean area under the curve (AUC)): 13100 ng·h/mL
